Test results reported in paper PMC11290853, “Cholesterol-dependent dynamic changes in the conformation of the type 1 cholecystokinin receptor affect ligand binding and G protein coupling” (PLOS Biology, 2024).
Substitutions are numbered along the chain they refer to.

How the values were obtained:
CCK2R(sterol 7M) = molecular target: T1, CCK2R(sterol 7M) (Homo sapiens, UniProt P32239, A149S/A235M/F228L/L143F/L225I/S154G/V232I); experiment: fluorescence polarization kinetic assay, CCK2R(sterol 7M); type: binding; details: vs CCK2R
T1 construct: expressed in transfected cells
T1 sequence (P32239 1-447 L143F/A149S/S154G/L225I/F228L/V232I/A235M): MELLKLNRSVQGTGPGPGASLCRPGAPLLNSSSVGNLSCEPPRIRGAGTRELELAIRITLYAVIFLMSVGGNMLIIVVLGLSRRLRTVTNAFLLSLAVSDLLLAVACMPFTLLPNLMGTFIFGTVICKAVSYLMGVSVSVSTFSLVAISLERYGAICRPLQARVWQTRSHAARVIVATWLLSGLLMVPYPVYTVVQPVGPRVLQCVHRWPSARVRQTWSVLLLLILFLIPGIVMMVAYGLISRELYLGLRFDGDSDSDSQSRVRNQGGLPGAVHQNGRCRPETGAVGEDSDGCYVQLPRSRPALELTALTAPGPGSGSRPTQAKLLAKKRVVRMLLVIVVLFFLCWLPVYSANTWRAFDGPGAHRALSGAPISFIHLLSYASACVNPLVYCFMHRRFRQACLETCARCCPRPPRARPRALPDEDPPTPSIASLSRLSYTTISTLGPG
Method: (§1) Cells were grown either in Ham-F12 medium supplemented with 5% Fetal Clone II or DMEM supplemented with 10% Fetal Clone II with 1% penicillin-streptomycin, 4 mM glutamine mixture in a humidified atmosphere containing 5% CO2 at 37°C.
(§2) This was done in the absence or presence of the non-hydrolyzable GTP analogue, GppNHp, at 10 μM concentration.

CCK2R WT = molecular target: T2, CCK2R WT (Homo sapiens, UniProt P32239); experiment: fluorescence polarization kinetic assay, CCK2R WT; type: binding
T2 construct: expressed in transfected cells; some KO cells re-transfected with Galphaq or Galpha11), receptor-enriched membranes
T2 sequence (P32239 1-447): T1 sequence (P32239 1-447 L143F/A149S/S154G/L225I/F228L/V232I/A235M) with F143L, S149A, G154S, I225L, L228F, I232V, M235A
Method: as §1, §2

CCK1R(sterol 7M) [1] = molecular target: T3, CCK1R(sterol 7M) (Homo sapiens, UniProt P32238, F130L/G141S/I216L/I223V/L219F/M226A/S136A); experiment: fluorescence polarization kinetic assay, CCK1R(sterol 7M); type: binding
T3 construct: expressed in transfected cells
T3 sequence (P32238 1-428 F130L/S136A/G141S/I216L/L219F/I223V/M226A): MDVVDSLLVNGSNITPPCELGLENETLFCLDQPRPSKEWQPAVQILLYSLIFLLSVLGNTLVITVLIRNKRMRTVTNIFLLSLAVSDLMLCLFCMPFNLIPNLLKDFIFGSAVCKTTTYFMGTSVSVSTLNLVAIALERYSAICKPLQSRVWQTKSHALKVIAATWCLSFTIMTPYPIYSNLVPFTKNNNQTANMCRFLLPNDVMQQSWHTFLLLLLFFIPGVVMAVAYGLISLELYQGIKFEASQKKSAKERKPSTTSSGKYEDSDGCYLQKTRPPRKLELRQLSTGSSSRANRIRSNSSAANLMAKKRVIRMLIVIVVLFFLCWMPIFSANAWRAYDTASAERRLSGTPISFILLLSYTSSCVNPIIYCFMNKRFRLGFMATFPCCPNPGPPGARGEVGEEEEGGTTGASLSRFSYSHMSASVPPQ
Method: as §1, §2

SRD15-CCK1R cells = molecular target: T4, SRD15-CCK1R cells (Homo sapiens, UniProt P32238); experiment: fluorescence polarization kinetic assay, SRD15-CCK1R cells; type: binding; details: vs WT CCK1R
T4 construct: expressed in transfected cells; host or cells: SRD15 cells (genetically modified CHO cells with elevated membrane cholesterol)
T4 sequence (P32238 1-428): T3 sequence (P32238 1-428 F130L/S136A/G141S/I216L/L219F/I223V/M226A) with L130F, A136S, S141G, L216I, F219L, V223I, A226M
Method: as §1, §2

CCK1R(Y140A) [2] = molecular target: T5, CCK1R(Y140A) (Homo sapiens, UniProt P32238, Y140A); experiment: fluorescence polarization kinetic assay, CCK1R(Y140A); type: binding
T5 construct: expressed in transfected cells; some KO cells re-transfected with Galphaq or Galpha11), receptor-enriched membranes
T5 sequence (P32238 1-428 Y140A): T3 sequence (P32238 1-428 F130L/S136A/G141S/I216L/L219F/I223V/M226A) with L130F, A136S, Y140A, S141G, L216I, F219L, V223I, A226M
Method: as §1, §2

CCK1R(Y140A) [3] = experiment: photoaffinity labeling, CCK1R(Y140A); type: binding, human; details: CNBr cleavage, 10% NuPAGE gel
Method: (§3) After incubation, contents were transferred to a siliconized glass tube and exposed to UV irradiation for 30 min at 4°C with 3,500-Å lamps in a Rayonet photochemical reactor (Southern New England Ultraviolet, Hamden, Connecticut). After photolysis, membrane suspensions were centrifuged at 25,000×g for 5 min and washed twice with ice-cold medium and then resuspended in 30 μl of SDS sample buffer prior to separation on 10% SDS-polyacrylamide gels. Gels were dried and radiolabeled bands were visualized by autoradiography. The apparent molecular weight of radiolabeled receptor fragments was determined from the mobility of Prosieve color protein standards (Cambrex, Rockland, Maine). Receptor radiolabeled bands were excised from the polyacrylamide gel, eluted, and lyophilized, then precipitated with ethanol. Radiochemically pure receptor suspension was cleaved with 2.5 mg of CNBr in 70% formic acid, as described previously. The cleaved receptor products were washed, dried, and resolve in 10% NuPAGE gel with MES running buffer (Invitrogen, Carlsbad, California). The labeled products were identified by autoradiography.

CCK2R = details: CNBr fragment; ref [28]; cited from earlier work
WT CCK1R = details: large glycosylated CNBr fragment; ref [28],[31]; cited from earlier work
CCK1R(sterol 7M) [4] = experiment: photoaffinity labeling, CCK1R(sterol 7M); type: binding, human; details: CNBr cleavage, 10% NuPAGE gel
Method: as §3

| Compound | ligand dissociation (CCK2R(sterol 7M)) | ligand dissociation rate, Gq or G11 reintroduced (CCK2R WT; Gq/11 KO cells) | rate of CCK dissociation (off rate) (CCK2R WT; vs WT CCK1R) | kinetics in Gq/11 KO cells (CCK1R(sterol 7M) [1]; absence of Gq/11 proteins) | off rate (CCK1R(sterol 7M) [1]; vs CCK1R and CCK1R(Y140A)) | rate of CCK dissociation (off rate) (SRD15-CCK1R cells) | off rate, Gq or G11 transfected (CCK1R(Y140A) [2]; Gq/11 KO cells) | rate of CCK dissociation (off rate) (CCK1R(Y140A) [2]; vs WT CCK1R) | photoaffinity labeling pattern (CCK1R(Y140A) [3]) | site of covalent labeling (CCK2R) | site of covalent labeling (WT CCK1R) | photoaffinity labeling pattern (CCK1R(sterol 7M) [4]) |
| --- | --- | --- | --- | --- | --- | --- | --- | --- | --- | --- | --- | --- |
| CCCC[C@H](NC(=O)[C@H](Cc1ccc(OS(=O)(=O)O)cc1)NC(=O)[C@H](CC(=O)O)NC(=O)CNC(=O)c1ccc(-c2c3ccc(=N)c(S(=O)(=O)O)c-3oc3c(S(=O)(=O)O)c(N)ccc23)c(C(=O)O)c1)C(=O)NCC(=O)N[C@@H](Cc1c[nH]c2ccccc12)C(=O)N[C@@H](CCCC)C(=O)N[C@@H](CC(=O)O)C(=O)N[C@@H](Cc1ccccc1)C(N)=O [alexa^488-Gly-[(Nle^28,31)CCK-26-33]] | significantly faster ligand dissociation than CCK2R | reintroduction of either Gq or G11 reversed the increased ligand dissociation rate | slower at WT CCK2R relative to WT CCK1R | not altered by absence of Gq/11 proteins | intermediate between that of CCK1R and CCK1R(Y140A) | significantly slower | transfection of Gq, but not G11, reversed the higher off rate | significantly slower |  |  |  |  |
| (^125I-des-amino-Tyr)-Gly-[(Nle^28,31)CCK(26–32)]-Bpa^33 |  |  |  |  |  |  |  |  | labeling of a much smaller and non-glycosylated fragment of the receptor | Thr119 | Trp39 | the same as previously demonstrated for WT CCK1R |
